How the values were obtained:
[1] = Plasma pharmacokinetics after per os enrofloxacin alone or with per os propolis (HPLC-FL, non-compartmental analysis); settings: rabbit plasma, CPR = metabolite of ENR
Experimental: (§1) This study was carried out under ideal conditions for rabbits, with ad libitum food and water. A total of 12 New Zealand White female rabbits, aged 4–6 months and weighing 2500–3000 g, were used in this study. The rabbits were randomly allocated into two groups, and each group consisted of six animals in the first phase of the study. This study was performed according to a two-phase longitudinal pharmacokinetic design. A 40-day elimination period was allowed between the treatments.
(§2) The collected blood samples were centrifuged at 13,000 rpm for 10 min, and plasma was removed and stored at −20 °C until HPLC analysis.
The mobile phase consisted of acetonitrile, and methanol (50:50) and potassium phosphate monobasic (20 mM, pH: 3.40) were delivered in an isocratic fashion at a flow rate of 1 mL/min. The fluorescence detector (FL, G1321B, Agilent, Germany) was at an excitation wavelength of 280 nm and an emission wavelength of 450 nm. […]
(§3) The plasma concentration–time curves obtained after each treatment in the individual animals were fitted with the WinNonlin software program (Version 5.2, Pharsight Corporation, Mountain View, CA, USA). The pharmacokinetic parameters for each animal were analyzed using non-compartmental model analysis. […]
The mean residence time (MRT) was calculated as follows: MRT0→∞ = AUMC0→∞/AUC0→∞ […]

[2] = Plasma pharmacokinetics after intramuscular enrofloxacin alone or with per os propolis (HPLC-FL, non-compartmental analysis); settings: after ENR 10 mg/kg IM alone
Experimental: as §1, §2
The mobile phase consisted of acetonitrile, and methanol (50:50) and potassium phosphate monobasic (20 mM, pH: 3.40) were delivered in an isocratic fashion at a flow rate of 1 mL/min. The fluorescence detector (FL, G1321B, Agilent, Germany) was at an excitation wavelength of 280 nm and an emission wavelength of 450 nm. The Photo Diode Array Detector (DAD) was set at a wavelength of 279 nm for marbofloxacin (I.S.) analysis. The injection volume was 50 µL throughout the analysis, and a chromatographic analysis was completed in 10 min for plasma samples following injection. […]
as §3
The mean residence time (MRT) was calculated as follows: MRT0→∞ = AUMC0→∞/AUC0→∞
Terminal half-life (T1/2λz) was calculated as follows: T1/2λz= −ln(2)/λz where λz represents the first-order rate constant associated with the terminal (log-linear) portion of the curve.
The pharmacokinetic parameters are reported as mean (±SD). Harmonic means were calculated for T1/2λz and MRT0–∞. […] Non-normally distributed data were analyzed by a non-parametric Mann–Whitney U-Test; meanwhile, normally distributed data were compared by independent t-test using SPSS Statistics 23.0 (IBM Corp, Armonk, NY, USA). […]

[3] = Observation of systemic or local adverse effects during the study; settings: rabbits; enrofloxacin per os 20 mg/kg or IM 10 mg/kg, propolis 100 mg resin/kg per os
Experimental: The significance of the results was analyzed pharmacokinetically.
as §1

[4] = 16 volunteers; subtherapeutic doses with propolis (375 mg/day); ref [21]; cited from earlier work
[5] = propolis coadministered with duloxetine; ref [19]; cited from earlier work

O=C(O)c1cn(C2CC2)c2cc(N3CCNCC3)c(F)cc2c1=O [CPR + PP]
AUMC0-∞ (dose-normalized) ([1]; after ENR 20 mg/kg per os with propolis 100 mg resin/kg): 63.99±17.18 µg.h2/ml

O=C(O)c1cn(C2CC2)c2cc(N3CCNCC3)c(F)cc2c1=O [CPR, ciprofloxacin]
AUMC0-∞ (dose-normalized) ([1]; after ENR 20 mg/kg per os alone): 27.72±13.72 µg.h2/ml

CCN1CCN(c2cc3c(cc2F)c(=O)c(C(=O)O)cn3C2CC2)CC1 [ENR, enrofloxacin]
AUMC0-∞ (dose-normalized) ([2]; dose-normalized, rabbit plasma, CPR = metabolite of ENR): 59.21±18.78 µg.h2/ml | Cmax ([2]; female, New Zealand White, rabbit, plasma, im, 10 mg/kg, Cmax, n = 6, CPR = metabolite of ENR): 2980 ± 350 ng/mL | Tmax ([2]; female, New Zealand White, rabbit, plasma, im, 10 mg/kg, Tmax, n = 6, CPR = metabolite of ENR): 28.2 ± 4.8 min | systemic or local adverse effects [3]: neither systemic nor local adverse effects were observed

Cn1c(=O)c2c(ncn2C)n(C)c1=O [caffeine]
change of AUC with propolis [4]: decreased

CNCC[C@H](Oc1cccc2ccccc12)c1cccs1 [duloxetine]
increase in AUC with propolis coadministration [5]: 20–30% | increase in Cmax with propolis coadministration [5]: 20–30%

CCCCc1nc(Cl)c(CO)n1Cc1ccc(-c2ccccc2-c2nn[nH]n2)cc1 [losartan]
change of AUC with propolis [4]: decreased

Cc1ncc2n1-c1ccc(Cl)cc1C(c1ccccc1F)=NC2 [midazolam]
change of AUC with propolis [4]: increased

COc1ccc2[nH]c([S+]([O-])Cc3ncc(C)c(OC)c3C)nc2c1 (stereo not drawn) [omeprazole]
change of AUC with propolis [4]: increased
